Assay results reported in ChEMBL document CHEMBL1154464, “Constrained analogues of tocainide as potent skeletal muscle sodium channel blockers towards the development of antimyotonic agents” (Eur J Med Chem, 2008).

How the values were obtained:
[1] = Blockade of Nav1.4 sodium channel in frog semitendinosus muscle fibres assessed as tonic block elicited by infrequent depolarizing pulses at a frequency of 0.3 Hz by vaseline-gap voltage clamp method; format: tissue-based, Pelophylax lessonae
Pelophylax lessonae = assay: Ratio of IC50 for tonic blockade of Nav1.4 sodium channel to phasic blockade of Nav1.4 sodium channel in frog semitendinosus muscle fibres; format: tissue-based
[2] = Blockade of Nav1.4 sodium channel in frog semitendinosus muscle fibres assessed as phasic block at 10 Hz stimulation frequency by vaseline-gap voltage clamp method; format: tissue-based, Pelophylax lessonae

| IC50 [1] [µM] | IC50 [2] [µM] | Structure (SMILES) | Ratio IC50 (Pelophylax lessonae) |
| --- | --- | --- | --- |
| 31.6 | 2.4 | Cc1cccc(C)c1NC(=O)C1CN(Cc2ccccc2)CCN1 (configuration not stated) | 13 |
| 581 | 273 | Cc1cccc(C)c1NC(=O)C(C)N (configuration not stated) [TOCAINIDE] | – |
| 38.5 | 4.5 | Cc1cccc(C)c1NC(=O)C1CCCN(Cc2ccccc2)C1 (configuration not stated) | – |
